Source: US11446304B2, “CDC-7-inhibitor compounds and use thereof for the treatment of neurological conditions” (CONSEJO SUPERIOR DE INVESTIGACIONES CIENTIFICAS (CSIC), priority 2017, dated 2022)

Columns and labels:
human recombinant CDC7 = target: T1, human recombinant CDC7 (Homo sapiens, UniProt O00311); experiment: CDC7 inhibition measurement (ADP-Glo technology); type: biochemical; settings: ATP 10 μM, 60 min at room temperature; read-out: CDC7 ADP-Glo ™ CI50
T1 construct: purchased Promega V5089
T1 sequence (O00311 whole entry): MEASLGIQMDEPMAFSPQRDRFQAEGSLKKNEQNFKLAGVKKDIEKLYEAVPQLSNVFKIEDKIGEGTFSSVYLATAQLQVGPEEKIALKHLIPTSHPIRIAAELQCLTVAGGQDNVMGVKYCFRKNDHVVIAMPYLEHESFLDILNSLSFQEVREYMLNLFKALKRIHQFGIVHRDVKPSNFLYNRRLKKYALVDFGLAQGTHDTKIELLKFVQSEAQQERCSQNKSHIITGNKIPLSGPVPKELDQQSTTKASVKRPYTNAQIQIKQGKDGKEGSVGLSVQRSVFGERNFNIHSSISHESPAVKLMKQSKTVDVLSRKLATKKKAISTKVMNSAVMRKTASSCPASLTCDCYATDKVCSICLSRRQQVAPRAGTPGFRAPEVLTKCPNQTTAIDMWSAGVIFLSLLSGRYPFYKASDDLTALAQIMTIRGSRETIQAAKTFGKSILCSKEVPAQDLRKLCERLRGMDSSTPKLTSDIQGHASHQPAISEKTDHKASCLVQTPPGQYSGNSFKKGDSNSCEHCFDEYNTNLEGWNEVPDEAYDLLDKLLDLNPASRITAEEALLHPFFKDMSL
T1 sequence (Q9UBU7 whole entry partner): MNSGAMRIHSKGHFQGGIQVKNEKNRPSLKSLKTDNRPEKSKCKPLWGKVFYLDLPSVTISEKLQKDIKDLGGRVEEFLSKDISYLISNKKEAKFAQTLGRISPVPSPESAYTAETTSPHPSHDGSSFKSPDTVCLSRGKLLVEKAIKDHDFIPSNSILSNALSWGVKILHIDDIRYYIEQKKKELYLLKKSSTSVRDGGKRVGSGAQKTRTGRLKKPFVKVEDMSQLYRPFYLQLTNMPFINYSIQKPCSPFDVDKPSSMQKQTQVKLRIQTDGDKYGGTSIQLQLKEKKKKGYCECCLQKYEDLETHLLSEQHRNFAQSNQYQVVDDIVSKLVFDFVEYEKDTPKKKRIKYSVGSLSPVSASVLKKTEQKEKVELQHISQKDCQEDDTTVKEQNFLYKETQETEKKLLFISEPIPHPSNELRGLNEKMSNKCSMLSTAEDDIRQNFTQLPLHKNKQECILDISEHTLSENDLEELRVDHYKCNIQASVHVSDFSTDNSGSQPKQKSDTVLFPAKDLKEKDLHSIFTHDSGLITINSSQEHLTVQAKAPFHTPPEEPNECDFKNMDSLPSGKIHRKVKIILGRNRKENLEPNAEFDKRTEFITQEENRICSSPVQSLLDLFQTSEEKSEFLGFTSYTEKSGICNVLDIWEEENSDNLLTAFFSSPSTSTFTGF
Description: The method used is a non-radioactive enzyme inhibition assay using human recombinant CDC7. It is based on luminometric quantification of inhibition using the ADP-Glo™ Kinase Kit. In this test the luminescent signal correlates positively with the amount of adenosine diphosphate (ADP) and the activity of the kinase. […]
CDC7 enzyme inhibition studies were conducted using the promega kit: ADP-Glo™ Kinase Assay+CDC7/DBF4 Kinase Enzyme System (Catalogue No. V5089). ATP and other reagents were purchased in Sigma-Aldrich (St. Louis, Mo.). The trials were performed in a buffer solution using 96-well plates. The compound to be tested (5 μL, 40 μM dissolved in DMSO 4%) was added to each well followed by the enzyme (5 μL, 25 ng/well), ATP (5 μL, final concentration in well 10 μM) and PDKtidE (5 μL, 4 μg/well). It was then incubated for 60 minutes at room temperature and the reagent ADP-Glo™ (20 μL) was added and incubated again for 40 min at room temperature. After incubation, the kinase detection agent (40 μL) was added and incubated for 30 min at room temperature. Finally, the luminescence (integration time of 0.5-1 sec) was measured using a POLARstar Optima multimode reader polarimeter. Inhibition activities were calculated as a function of maximum activity, measured in the absence of inhibitor.

[1] = target: human recombinant CDC7/DBF4 (Homo sapiens, UniProt O00311); experiment: CDC7 inhibition measurement (LanthaScreen Eu kinase binding, FRET); settings: CDC7/DBF4 0.5 nM, 60 min at room temperature; read-out: CDC7 Lantha ™ CI50
Chain of human recombinant CDC7/DBF4 (O00311 whole entry): as the sequence (O00311 whole entry) above
Chain of human recombinant CDC7/DBF4 (Q9UBU7 whole entry partner): as the sequence (Q9UBU7 whole entry partner) above
Source text: The LanthaScreen Eu kinases inhibition assay uses an Alexa marker Fluor™ that binds to a kinase and is detected by the addition of an Eu-marked antibody. The binding of the marker and the antibody to the kinase results in a high degree of FRET, while the displacement of the marker by an inhibitor results in a loss of FRET. Unlike many other kinase activity tests, this is a simple mix and read test, with no developmental stages. This test method has been developed by Life Technologies and identifies competitive ATP kinase inhibitors, making them suitable for the detection of any compound that binds to the ATP site.
The compounds are evaluated at 1% DMSO (final) in the well. A mixture of human recombinant CDC7/DBF4 (0.5 nM), Eu-antiGST antibody (2 nM) and AlexaFluor marker (1 nM) has been used in a buffer of 50 mM HEPES pH 7.5, 0.01% BRIJ-35, 10 mM MgCl2, 1 mM EGTA in white plates of […], low volume, coded (Greiner cat. #784207), 160 nL (100×100% DMSO compound), 3.84 μL (buffer with CDC7/DBF4), 8.0 μL (antibody), 4.0 μL (marker) are added. Agitate 30 s and incubate at room temperature for 60 min. Then measure the fluorescence in the plate reader and analyze the data (Table 1).

[2] = PAMPA blood-brain barrier permeation (porcine brain lipid); type: in vitro ADME; settings: for Papp at 2.5 h: PAMPA-BHE, PBS pH 7.4/EtOH 70:30, 2 h 30 min at 25° C., mean ± SD, read-out: Pe; for PAMPA prediction of central nervous system (CNS) penetration: from Pe in PAMPA-BHE
Source text: An essential requirement for drugs for the treatment of neurodegenerative diseases is the ability to cross the blood-brain barrier (BBB), as otherwise they could not act on the target of interest. Therefore, for compounds that are not permeable or located in the area of uncertainty, it may be necessary to properly convey a pharmaceutical formulation through methods known to an expert in the field, such as encapsulation. This capability can be predicted in vitro using a method known by the acronym PAMPA (Parallel Artificial Membrane Permeability Assay) described by Di et al (Di, L.; Kerns, E. H.; Fan, K.; McConnell, O. J.; Carter, G. T. Eur. J. Med. Chem. 2003, 38 (3), 223-232) and which has subsequently been fine-tuned in our research group. This method allows predicting the effective permeability through artificial membranes by means of a passive diffusion process.
First of all, it is necessary to validate the method, for which 10 commercial compounds are used whose penetration capacity in the central nervous system (CNS) is known and which are to be specified below, obtaining in this case a good linear correlation between the experimental permeability values (Pe) and those described (FIG. 1). This correlation line obtained following the pattern described in the bibliography allows establishing the limits to predict whether or not a compound can cross the blood-brain barrier. Thus, a compound is considered BBB permeable (SNC+) if it has a permeability>4.48×10^−6 cm-s^−1.
For the procedure, between 3-5 mg of caffeine, desipramine, enoxacin, hydrocortisone, ofloxacin, piroxicam and testosterone, 12 mg of promazine and 25 mg of atenolol and verapamil were taken and dissolved in EtOH (1000 μL). 100 μL of these solutions were taken and EtOH (1400 μL) and phosphate buffer (PBS) pH=7.4 (3500 μL) were added in order to achieve a final EtOH concentration of 30% v/v in solution. Finally, the dissolutions were filtered.
On the other hand, a PBS/EtOH solution (70:30) was added to each well of the acceptance plate (180 μL). The donor plate was impregnated with a porcine brain lipid solution (4 μL) dissolved in dodecane (20 mg mL^−1). After 5 min, dissolution of each compound was added to this plate (180 μL).
Of the compounds 1 to 10 evaluated, 1-2 mg were taken and dissolved in EtOH (1500 μL) and phosphate buffer (PBS) pH=7.4 (3500 μL), filtered and added to the donor plate. With these solutions, the wavelengths at which the compounds absorb are determined and the initial absorbance levels at these wavelengths are measured using a UV absorbance reader. Each sample was analyzed from two to five wavelengths, in three wells and in two independent experiments.
The donor plate was then deposited on the acceptor forming a kind of “sandwich” and incubated for 2 hours and 30 minutes at 25° C. In this way, the compounds will pass from the donor plate to the acceptor plate through the porcine brain lipid by passive diffusion. After that time, the donor plate is carefully removed and the concentration and final absorbance of both commercial and synthesized compounds is determined. The results obtained are expressed as the mean of the measurements [standard deviation (SD)] of the different experiments carried out and are shown in table 2.

IC50 (human recombinant CDC7) | IC50 [1] | Papp at 2.5 h [2] | melting point | Compound | PAMPA prediction of central nervous system (CNS) penetration [2]
11200 ± 840 nM | 347 nM | 13.2 ± 2 ×10⁻⁶ cm/s | 221 to 222 °C | c1ccc2c(CSc3ncnc4[nH]cnc34)cccc2c1 [Compound 2, 6-((Naphthalene-1-ylmethyl)thio)-9H-purine] | SNC+ (a compound is considered BBB permeable (SNC+) if it has a permeability>4.48×10^−6 cm-s^−1)
8380 ± 270 nM | 335 nM | 2.3 ± 0.2 ×10⁻⁶ cm/s | 189 to 191 °C | N#Cc1cccc(CSc2ncnc3[nH]cnc23)c1 [Compound 3] | SNC+/−
9730 ± 1030 nM | 245 nM | 17.5 ± 0.9 ×10⁻⁶ cm/s | – | FC(F)(F)c1ccccc1CSc1ncnc2[nH]cnc12 [Compound 4, 6-((2-(trifluoromethyl)benzyl)thio)-9H-purine] | SNC+ (a compound is considered BBB permeable (SNC+) if it has a permeability>4.48×10^−6 cm-s^−1)
8460 ± 1050 nM | 184 nM | 12.2 ± 1.2 ×10⁻⁶ cm/s | 198 to 200 °C | Clc1ccc(CSc2ncnc3[nH]cnc23)cc1 [Compound 5, 6-((4-chlorobenzyl)thio)-9H-purine] | SNC+ (a compound is considered BBB permeable (SNC+) if it has a permeability>4.48×10^−6 cm-s^−1)
8980 ± 210 nM | 194 nM | 7.2 ± 0.6 ×10⁻⁶ cm/s | 197 to 199 °C | Clc1cccc(COc2ncnc3[nH]cnc23)c1 [Compound 6, 6-((3-chlorobenzyl)oxy)-9H-purine] | SNC+ (a compound is considered BBB permeable (SNC+) if it has a permeability>4.48×10^−6 cm-s^−1)
6900 ± 830 nM | – | 16.3 ± 0.6 ×10⁻⁶ cm/s | 180 to 182 °C | FC(F)(F)c1cccc(CSc2ncnc3[nH]cnc23)c1 [Compound 7, 6-((3-(trifluoromethyl)benzyl)thio)-9H-purine] | SNC+ (a compound is considered BBB permeable (SNC+) if it has a permeability>4.48×10^−6 cm-s^−1)
6540 ± 320 nM | – | 3.9 ± 0.4 ×10⁻⁶ cm/s | 193 to 195 °C | O=[N+]([O-])c1cccc(CSc2ncnc3[nH]cnc23)c1 [Compound 10, 6-((3-nitrobenzyl)thio)-9H-purine] | SNC+/−
5290 ± 710 nM | 138 nM | – | – | Brc1cccc(CSc2ncnc3[nH]cnc23)c1 [Compound 11, 6-((3-bromobenzyl)thio)-9H-purine] | –
9140 ± 790 nM | – | 11.5 ± 0.7 ×10⁻⁶ cm/s | – | Brc1ccc(CSc2[nH]cnc3ncnc2-3)cc1 [Compound 12, 6-((4-bromobenzyl)thio)-9H-purine] | SNC+ (a compound is considered BBB permeable (SNC+) if it has a permeability>4.48×10^−6 cm-s^−1)
– | 92 nM | 18.1 ± 1.2 ×10⁻⁶ cm/s | 200 to 202 °C | Clc1ccccc1CSc1ncnc2[nH]cnc12 [Compound 14, 6-((2-Chlorobenzyl)thio)-9H-purine] | SNC+ (a compound is considered BBB permeable (SNC+) if it has a permeability>4.48×10^−6 cm-s^−1)
– | – | 5.3 ± 0.8 ×10⁻⁶ cm/s | – | COc1cccc(CSc2ncnc3[nH]cnc23)c1 [Compound 15, 6-((3-methoxybenzyl)thio)-9H-purine] | SNC+ (a compound is considered BBB permeable (SNC+) if it has a permeability>4.48×10^−6 cm-s^−1)
– | 2790 nM | 9.7 ± 1.4 ×10⁻⁶ cm/s | 145 to 147 °C | CCOC(=O)c1ccccc1CSc1ncnc2[nH]cnc12 [Compound 16, Ethyl 2-(((9H-Purine-6-yl)thio)methyl)benzoate] | SNC+ (a compound is considered BBB permeable (SNC+) if it has a permeability>4.48×10^−6 cm-s^−1)
– | 127 nM | 5.5 ± 1.3 ×10⁻⁶ cm/s | – | O=[N+]([O-])c1ccc(CSc2ncnc3[nH]cnc23)cc1 [Compound 17, 6-((4-nitrobenzyl)thio)-9H-purine] | SNC+ (a compound is considered BBB permeable (SNC+) if it has a permeability>4.48×10^−6 cm-s^−1)
– | – | – | 223 to 225 °C | CC(=O)Nc1ccc(CSc2ncnc3[nH]cnc23)cc1 [Compound 18, 6-((4-Acetamidobenzyl)thio)-9H-purine] | –
– | – | 2 ± 0.7 ×10⁻⁶ cm/s | 228 to 230 °C | N#Cc1ccc(CSc2ncnc3[nH]cnc23)cc1 [Compound 19, 6-((4-Cyanobenzyl)thio)-9H-purine] | SNC+/−
– | 167 nM | 2.9 ± 0.9 ×10⁻⁶ cm/s | – | c1ccc(COc2[nH]cnc3ncnc2-3)cc1 [Compound 20, 6-((benzyl)oxy)-9H-purine] | SNC+/−
– | – | 14 ± 1.4 ×10⁻⁶ cm/s | – | Brc1ccc(COc2ncnc3[nH]cnc23)cc1 [Compound 21, 6-((4-Bromobenzyl)oxy)-9H-purine] | SNC+ (a compound is considered BBB permeable (SNC+) if it has a permeability>4.48×10^−6 cm-s^−1)
– | 367 nM | 13.5 ± 1.6 ×10⁻⁶ cm/s | – | FC(F)(F)c1ccc(CSc2ncnc3[nH]cnc23)cc1 [Compound 22, 6-(4-(trifluoromethyl)benzylthio)-9H-purine] | SNC+ (a compound is considered BBB permeable (SNC+) if it has a permeability>4.48×10^−6 cm-s^−1)
– | 146 nM | 17.8 ± 0.7 ×10⁻⁶ cm/s | 203 to 205 °C | CSc1ccc(CSc2ncnc3[nH]cnc23)cc1 [Compound 23, 6-((4-(Methylthio)benzyl)thio)-9H-purine] | SNC+ (a compound is considered BBB permeable (SNC+) if it has a permeability>4.48×10^−6 cm-s^−1)
